Measured values: ChEMBL document CHEMBL5120877, “Silybins are stereospecific regulators of the 20S proteasome” (Bioorg Med Chem, 2022)
Calls of active or inactive are those of the source.

Experiments:
Details in all cases: filed as activator, time 90.0 min
Saccharomyces cerevisiae [1] = assay: Activation of trypsin-like activity of yeast 20s proteasome using […] as flurogenic substrate preincubated for 30 mins followed by substrate addition and measured after 1 hr by fluorescence assay
Saccharomyces cerevisiae [2] = assay: Activation of PGPHL-peptidase activity of yeast 20s proteasome using […] as flurogenic substrate preincubated for 30 mins followed by substrate addition and measured after 1 hr by fluorescence assay
Saccharomyces cerevisiae [3] = assay: Activation of chymotrypsin-like activity of yeast 20s proteasome using suc-LLVY-AMC as flurogenic substrate preincubated for 30 mins followed by substrate addition and measured after 1 hr by fluorescence assay

Measured: Activity

COc1cc([C@H]2Oc3cc([C@H]4Oc5cc(O)cc(O)c5C(=O)[C@@H]4O)ccc3O[C@@H]2CO)ccc1O
active: all assays above

COc1cc([C@@H]2Oc3cc([C@H]4Oc5cc(O)cc(O)c5C(=O)[C@@H]4O)ccc3O[C@H]2CO)ccc1O
active: all assays above
